≈ marks a conversion by molar mass, not a printed value.
Columns and labels:
Dipeptidyl peptidase 9 = Dipeptidyl peptidase 9 (Homo sapiens, UniProt Q86TI2); assay: Inhibition of human recombinant DPP9 pre-incubated with compound for 15 mins before substrate addition by luminescence assay
Dipeptidyl peptidase 8 = Dipeptidyl peptidase 8 (Homo sapiens, UniProt Q6V1X1); assay: Inhibition of human recombinant DPP8 pre-incubated with compound for 15 mins before substrate addition by luminescence assay
[1] = Half life in rat at 10 mg/kg, po; assay type: ADME, organism-based; set-up: dose 10 mg/kg, route oral; conditions: in vivo
[2] = Protein binding in dog; assay type: ADME, organism-based, Canis lupus familiaris; conditions: in vivo, read-out: PB (converted)
Mus musculus [3] = assay: Toxicity in db/db mouse assessed as effect on body weight administered with food formulated compound for 28 days; assay type: organism-based; conditions: in vivo, po, 672 h
[4] = Cmax in monkey at 10 mg/kg, po; assay type: ADME, organism-based, Macaca mulatta; set-up: dose 10 mg/kg, route oral; conditions: rhesus monkey, in vivo
[5] = Half life in rat at 10 mg/kg, iv; assay type: ADME, organism-based; set-up: dose 10 mg/kg, route intravenous; conditions: in vivo
Mus musculus [6] = assay: Increase in plasma GLP1 level in C57BL/6 mouse at 0.3 mg/kg, po administered as single dose 30 mins before orally glucose challenge and measured 20 mins post oral glucose challenge by ELISA method (reference value: 4 pM); assay type: functional
Mus musculus [7] = assay: Inhibition of DPP4 activity in C57BL/6 mouse at 0.3 mg/kg, po administered as single dose 30 mins before orally glucose challenge and measured 20 mins post oral glucose challenge by luminescence assay; assay type: functional
[8] = Oral bioavailability in dog at 5 mg/kg; assay type: ADME, organism-based, Canis lupus familiaris; conditions: in vivo
[9] = Solubility in pH 6.8 solution; assay type: physicochemical
Cytochrome P450 2D6 = Cytochrome P450 2D6 (Homo sapiens, UniProt P10635); assay: Inhibition of CYP2D6 (unknown origin); assay type: ADME
Mus musculus [10] = assay: Inhibition of DPP4 activity in C57BL/6 mouse at 0.1 mg/kg, po administered as single dose 30 mins before orally glucose challenge and measured 20 mins post oral glucose challenge by luminescence assay; assay type: functional
[11] = Half life in monkey at 5 mg/kg, iv; assay type: ADME, organism-based, Macaca mulatta; set-up: dose 5 mg/kg, route intravenous; conditions: rhesus monkey, in vivo
[12] = Solubility in pH 4.5 solution; assay type: physicochemical
Canis familiaris = assay: Cardiotoxicity in conscious dog assessed as induction of QT prolongation up to 20 mg/kg; assay type: toxicity, organism-based, Canis lupus familiaris; set-up: dose 20 mg/kg; conditions: in vivo
Cytochrome P450 2C19 = Cytochrome P450 2C19 (Homo sapiens, UniProt P33261); assay: Inhibition of CYP2C19 (unknown origin); assay type: ADME
[13] = Half life in dog at 5 mg/kg, po; assay type: ADME, organism-based, Canis lupus familiaris; set-up: dose 5 mg/kg, route oral; conditions: in vivo
[14] = Plasma concentration in C57BL/6 mouse at 0.3 mg/kg, po administered as single dose 30 mins before orally glucose challenge and measured 20 mins post oral glucose challenge; assay type: ADME, organism-based; set-up: dose 0.3 mg/kg, route oral
Mus musculus [15] = assay: Antidiabetic activity in C57BL/6 mouse assessed as reduction in plasma glucose AUC (0 to 120 mins) at 1 mg/kg, po administered as single dose 30 mins before orally glucose challenge by oral glucose tolerance test; assay type: functional; conditions: C57BL/6, Plasma
[16] = Protein binding in human; assay type: ADME, organism-based; conditions: in vivo, read-out: PB (converted)
[17] = AUClast in rat at 10 mg/kg, po; assay type: ADME, organism-based; set-up: time 0 - last, dose 10 mg/kg, route oral; conditions: plasma
Cytochrome P450 3A4 = Cytochrome P450 3A4 (Homo sapiens, UniProt P08684); assay: Inhibition of CYP3A4 (unknown origin); assay type: ADME
[18] = Cmax in dog at 5 mg/kg, po; assay type: ADME, organism-based, Canis lupus familiaris; set-up: dose 5 mg/kg, route oral; conditions: in vivo
[19] = Solubility in pH 1.2 solution; assay type: physicochemical
[20] = Plasma concentration in C57BL/6 mouse at 3 mg/kg, po administered as single dose 30 mins before orally glucose challenge and measured 20 mins post oral glucose challenge; assay type: ADME, organism-based; set-up: dose 3 mg/kg, route oral
[21] = Clearance in monkey at 5 mg/kg, iv; assay type: ADME, organism-based, Macaca mulatta; set-up: dose 5 mg/kg, route intravenous; conditions: rhesus monkey, in vivo
[22] = Cmax in rat at 10 mg/kg, po; assay type: ADME, organism-based; set-up: dose 10 mg/kg, route oral; conditions: in vivo
[23] = target: Voltage-gated inwardly rectifying potassium channel KCNH2 (Homo sapiens, UniProt Q12809); assay: Inhibition of human ERG
[24] = AUClast in dog at 5 mg/kg, po; assay type: ADME, organism-based, Canis lupus familiaris; set-up: time 0 - last, dose 5 mg/kg, route oral; conditions: plasma
[25] = Half life in dog at 6.25 mg/kg, iv; assay type: ADME, organism-based, Canis lupus familiaris; set-up: dose 6.25 mg/kg, route intravenous; conditions: in vivo
[26] = Plasma concentration in C57BL/6 mouse at 1 mg/kg, po administered as single dose 30 mins before orally glucose challenge and measured 20 mins post oral glucose challenge; assay type: ADME, organism-based; set-up: dose 1 mg/kg, route oral
[27] = AUClast in monkey at 10 mg/kg, po; assay type: ADME, organism-based, Macaca mulatta; set-up: dose 10 mg/kg, route oral, time 0 - last; conditions: rhesus monkey, plasma
[28] = Oral bioavailability in monkey at 10 mg/kg; assay type: ADME, organism-based, Macaca mulatta; conditions: rhesus monkey, in vivo
[29] = Toxicity in rat after 28 days; assay type: organism-based; conditions: in vivo
Mus musculus [30] = assay: Antidiabetic activity in C57BL/6 mouse assessed as reduction in plasma glucose AUC (0 to 120 mins) at 0.1 mg/kg, po administered as single dose 30 mins before orally glucose challenge by oral glucose tolerance test; assay type: functional; conditions: C57BL/6, Plasma
Mus musculus [31] = species: Mus musculus; assay: animal or person; conditions: C57BL/6, Plasma, po, read-out: INH
Mus musculus [32] = assay: Antidiabetic activity in C57BL/6 mouse assessed as plasma glucose level at 0.3 mg/kg, po administered as single dose 30 mins before orally glucose challenge by oral glucose tolerance test (reference value: 15.6 mM); assay type: functional
Mus musculus [33] = assay: Antidiabetic activity in C57BL/6 mouse assessed as plasma glucose level at 0.1 mg/kg, po administered as single dose 30 mins before orally glucose challenge by oral glucose tolerance test (reference value: 15.6 mM); assay type: functional
Mus musculus [34] = assay: Increase in plasma GLP1 level in C57BL/6 mouse at 0.1 mg/kg, po administered as single dose 30 mins before orally glucose challenge and measured 20 mins post oral glucose challenge by ELISA method (reference value: 4 pM); assay type: functional
[35] = Volume of distribution at steady state in dog at 6.25 mg/kg, iv; assay type: ADME, organism-based, Canis lupus familiaris; set-up: dose 6.25 mg/kg, route intravenous; conditions: in vivo, read-out: Vdss
[36] = Oral bioavailability in rat at 10 mg/kg; assay type: ADME, organism-based; conditions: in vivo
Cytochrome P450 2C9 = Cytochrome P450 2C9 (Homo sapiens, UniProt P11712); assay: Inhibition of CYP2C9 (unknown origin); assay type: ADME
Mus musculus [37] = assay: Inhibition of DPP4 activity in C57BL/6 mouse at 1 mg/kg, po administered as single dose 30 mins before orally glucose challenge and measured 20 mins post oral glucose challenge by luminescence assay; assay type: functional
[38] = Permeability from apical to basolateral side in human Caco2 cells; assay type: ADME, cell-based; conditions: Caco-2, read-out: permeability
[39] = Permeability from basolateral to apical side in human Caco2 cells; assay type: ADME, cell-based; conditions: Caco-2, read-out: permeability
Mus musculus [40] = assay: Inhibition of DPP4 activity in C57BL/6 mouse at 3 mg/kg, po administered as single dose 30 mins before orally glucose challenge and measured 20 mins post oral glucose challenge by luminescence assay; conditions: C57BL/6, po, read-out: INH
[41] = Plasma concentration in C57BL/6 mouse at 0.1 mg/kg, po administered as single dose 30 mins before orally glucose challenge and measured 20 mins post oral glucose challenge; assay type: ADME, organism-based; set-up: dose 0.1 mg/kg, route oral
Mus musculus [42] = species: Mus musculus; assay: animal or person; conditions: C57BL/6, Plasma, po, read-out: MED
Mus musculus [43] = assay: Increase in plasma GLP1 level in C57BL/6 mouse at 1 mg/kg, po administered as single dose 30 mins before orally glucose challenge and measured 20 mins post oral glucose challenge by ELISA method (reference value: 4 pM); assay type: functional
[44] = Half life in monkey at 10 mg/kg, po; assay type: ADME, organism-based, Macaca mulatta; set-up: dose 10 mg/kg, route oral; conditions: rhesus monkey, in vivo
[45] = Volume of distribution at steady state in monkey at 5 mg/kg, iv; assay type: ADME, organism-based, Macaca mulatta; set-up: dose 5 mg/kg, route intravenous; conditions: rhesus monkey, in vivo, read-out: Vdss
[46] = Clearance in dog at 6.25 mg/kg, iv; assay type: ADME, organism-based, Canis lupus familiaris; set-up: dose 6.25 mg/kg, route intravenous; conditions: in vivo
Mus musculus [47] = assay: Antidiabetic activity in C57BL/6 mouse assessed as plasma glucose level at 1 mg/kg, po administered as single dose 30 mins before orally glucose challenge by oral glucose tolerance test (reference value: 15.6 mM); assay type: functional
Mus musculus [48] = assay: Antidiabetic activity in C57BL/6 mouse assessed as reduction in plasma glucose AUC (0 to 120 mins) at 0.3 mg/kg, po administered as single dose 30 mins before orally glucose challenge by oral glucose tolerance test; assay type: functional; conditions: C57BL/6, Plasma
[49] = Protein binding in rat; assay type: ADME, organism-based; conditions: in vivo, read-out: PB (converted)
Salmonella typhimurium = assay: Genotoxicity in Salmonella typhimurium at 5000 ug/plate by Ames test; assay type: toxicity, organism-based; conditions: salmonella enterica subsp. enterica serovar typhimurium

Dipeptidyl peptidase 8, sequence (Q6V1X1 whole entry): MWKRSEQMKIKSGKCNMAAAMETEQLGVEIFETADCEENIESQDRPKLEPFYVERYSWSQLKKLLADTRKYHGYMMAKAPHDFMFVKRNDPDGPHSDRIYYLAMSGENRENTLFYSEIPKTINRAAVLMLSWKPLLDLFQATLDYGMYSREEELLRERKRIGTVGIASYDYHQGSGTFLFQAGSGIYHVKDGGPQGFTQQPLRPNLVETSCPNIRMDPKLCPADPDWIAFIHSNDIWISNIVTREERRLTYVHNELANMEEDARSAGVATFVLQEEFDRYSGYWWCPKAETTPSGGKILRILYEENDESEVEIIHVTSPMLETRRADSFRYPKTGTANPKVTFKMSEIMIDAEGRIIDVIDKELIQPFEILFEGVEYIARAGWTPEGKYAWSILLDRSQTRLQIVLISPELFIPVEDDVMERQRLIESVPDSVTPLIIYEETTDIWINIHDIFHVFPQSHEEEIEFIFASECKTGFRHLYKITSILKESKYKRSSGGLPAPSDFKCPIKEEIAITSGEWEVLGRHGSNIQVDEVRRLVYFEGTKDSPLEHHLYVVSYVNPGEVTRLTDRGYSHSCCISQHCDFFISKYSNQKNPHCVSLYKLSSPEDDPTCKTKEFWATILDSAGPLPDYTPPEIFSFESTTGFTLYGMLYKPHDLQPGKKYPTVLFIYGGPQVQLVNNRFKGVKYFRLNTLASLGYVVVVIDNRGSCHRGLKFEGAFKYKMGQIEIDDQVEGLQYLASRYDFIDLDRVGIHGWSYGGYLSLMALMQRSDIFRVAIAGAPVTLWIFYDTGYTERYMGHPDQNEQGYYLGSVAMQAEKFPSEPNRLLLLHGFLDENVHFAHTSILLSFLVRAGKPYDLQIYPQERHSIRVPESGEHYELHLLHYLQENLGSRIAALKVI
Dipeptidyl peptidase 9, sequence (Q86TI2 whole entry): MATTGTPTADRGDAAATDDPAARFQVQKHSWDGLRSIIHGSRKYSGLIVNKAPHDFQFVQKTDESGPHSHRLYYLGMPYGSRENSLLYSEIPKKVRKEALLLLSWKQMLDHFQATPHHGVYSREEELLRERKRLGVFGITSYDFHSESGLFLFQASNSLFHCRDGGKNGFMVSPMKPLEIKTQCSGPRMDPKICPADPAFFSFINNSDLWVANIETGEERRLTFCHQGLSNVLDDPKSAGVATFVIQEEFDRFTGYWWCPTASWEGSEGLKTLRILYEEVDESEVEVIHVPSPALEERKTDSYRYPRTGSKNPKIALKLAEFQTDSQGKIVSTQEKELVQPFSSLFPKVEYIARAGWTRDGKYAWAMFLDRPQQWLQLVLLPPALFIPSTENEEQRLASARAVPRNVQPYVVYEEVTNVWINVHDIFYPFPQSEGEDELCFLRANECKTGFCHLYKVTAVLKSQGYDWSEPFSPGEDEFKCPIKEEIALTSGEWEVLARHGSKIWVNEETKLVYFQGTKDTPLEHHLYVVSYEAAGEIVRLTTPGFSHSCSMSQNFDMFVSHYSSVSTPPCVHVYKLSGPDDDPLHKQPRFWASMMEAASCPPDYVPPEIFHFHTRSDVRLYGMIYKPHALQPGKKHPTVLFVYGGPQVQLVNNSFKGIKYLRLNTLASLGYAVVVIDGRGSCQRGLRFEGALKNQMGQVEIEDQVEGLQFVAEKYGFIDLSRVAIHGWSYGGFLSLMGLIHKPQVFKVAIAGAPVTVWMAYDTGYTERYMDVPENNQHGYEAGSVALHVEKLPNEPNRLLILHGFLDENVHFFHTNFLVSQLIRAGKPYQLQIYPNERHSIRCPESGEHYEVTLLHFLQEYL
Cytochrome P450 2C9, sequence (P11712 whole entry): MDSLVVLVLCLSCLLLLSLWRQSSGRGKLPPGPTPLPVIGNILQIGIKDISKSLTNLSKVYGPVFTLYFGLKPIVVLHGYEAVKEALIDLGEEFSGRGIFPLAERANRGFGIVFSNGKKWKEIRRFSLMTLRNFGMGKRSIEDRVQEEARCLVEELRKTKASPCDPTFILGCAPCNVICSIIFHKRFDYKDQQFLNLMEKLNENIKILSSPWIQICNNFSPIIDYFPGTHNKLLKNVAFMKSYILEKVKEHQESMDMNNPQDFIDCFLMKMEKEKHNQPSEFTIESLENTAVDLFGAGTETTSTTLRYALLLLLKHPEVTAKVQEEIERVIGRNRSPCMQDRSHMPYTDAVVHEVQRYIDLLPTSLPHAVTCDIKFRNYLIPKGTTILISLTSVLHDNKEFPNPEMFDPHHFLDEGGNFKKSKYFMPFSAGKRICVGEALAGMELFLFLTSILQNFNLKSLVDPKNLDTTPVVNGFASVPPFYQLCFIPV
Cytochrome P450 2D6, sequence (P10635 whole entry): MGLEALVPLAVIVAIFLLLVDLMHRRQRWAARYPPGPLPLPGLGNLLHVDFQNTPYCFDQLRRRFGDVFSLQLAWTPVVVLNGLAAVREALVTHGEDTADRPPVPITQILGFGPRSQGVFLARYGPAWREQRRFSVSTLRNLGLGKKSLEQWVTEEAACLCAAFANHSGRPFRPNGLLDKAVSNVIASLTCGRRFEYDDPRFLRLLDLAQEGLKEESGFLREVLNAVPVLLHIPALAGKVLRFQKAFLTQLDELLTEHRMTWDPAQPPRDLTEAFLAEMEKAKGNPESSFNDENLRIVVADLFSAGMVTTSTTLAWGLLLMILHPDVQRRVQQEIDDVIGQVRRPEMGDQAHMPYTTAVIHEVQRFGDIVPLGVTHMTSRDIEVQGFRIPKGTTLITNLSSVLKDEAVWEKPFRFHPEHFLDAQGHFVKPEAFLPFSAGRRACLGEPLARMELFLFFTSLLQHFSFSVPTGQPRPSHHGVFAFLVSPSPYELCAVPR
Cytochrome P450 2C19, sequence (P33261 whole entry): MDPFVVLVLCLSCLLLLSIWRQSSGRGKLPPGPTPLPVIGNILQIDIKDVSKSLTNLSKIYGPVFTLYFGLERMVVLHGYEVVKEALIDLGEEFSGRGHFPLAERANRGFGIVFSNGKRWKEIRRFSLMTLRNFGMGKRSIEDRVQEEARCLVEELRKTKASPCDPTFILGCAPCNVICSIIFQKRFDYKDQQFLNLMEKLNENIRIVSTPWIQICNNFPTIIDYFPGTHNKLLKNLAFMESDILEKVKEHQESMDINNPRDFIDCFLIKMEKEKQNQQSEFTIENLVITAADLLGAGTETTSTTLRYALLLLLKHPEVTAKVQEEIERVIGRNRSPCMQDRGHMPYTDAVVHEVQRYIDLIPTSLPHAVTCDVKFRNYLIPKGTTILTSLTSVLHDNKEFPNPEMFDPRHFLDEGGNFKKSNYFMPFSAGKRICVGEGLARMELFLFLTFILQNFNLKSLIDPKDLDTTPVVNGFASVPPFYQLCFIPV
Cytochrome P450 3A4, sequence (P08684 whole entry): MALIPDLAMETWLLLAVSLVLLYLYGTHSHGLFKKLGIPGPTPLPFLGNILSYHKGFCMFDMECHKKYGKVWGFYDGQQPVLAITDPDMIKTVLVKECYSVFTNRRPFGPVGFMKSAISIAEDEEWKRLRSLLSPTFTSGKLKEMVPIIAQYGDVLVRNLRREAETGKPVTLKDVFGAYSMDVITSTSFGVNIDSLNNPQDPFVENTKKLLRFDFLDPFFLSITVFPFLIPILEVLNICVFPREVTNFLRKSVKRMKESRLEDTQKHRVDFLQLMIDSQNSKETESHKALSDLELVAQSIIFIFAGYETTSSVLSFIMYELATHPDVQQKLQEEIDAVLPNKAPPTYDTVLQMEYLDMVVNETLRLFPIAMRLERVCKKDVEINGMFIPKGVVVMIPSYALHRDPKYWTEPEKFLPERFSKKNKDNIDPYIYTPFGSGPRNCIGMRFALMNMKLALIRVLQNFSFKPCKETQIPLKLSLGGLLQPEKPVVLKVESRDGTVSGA
Voltage-gated inwardly rectifying potassium channel KCNH2, sequence (Q12809 whole entry): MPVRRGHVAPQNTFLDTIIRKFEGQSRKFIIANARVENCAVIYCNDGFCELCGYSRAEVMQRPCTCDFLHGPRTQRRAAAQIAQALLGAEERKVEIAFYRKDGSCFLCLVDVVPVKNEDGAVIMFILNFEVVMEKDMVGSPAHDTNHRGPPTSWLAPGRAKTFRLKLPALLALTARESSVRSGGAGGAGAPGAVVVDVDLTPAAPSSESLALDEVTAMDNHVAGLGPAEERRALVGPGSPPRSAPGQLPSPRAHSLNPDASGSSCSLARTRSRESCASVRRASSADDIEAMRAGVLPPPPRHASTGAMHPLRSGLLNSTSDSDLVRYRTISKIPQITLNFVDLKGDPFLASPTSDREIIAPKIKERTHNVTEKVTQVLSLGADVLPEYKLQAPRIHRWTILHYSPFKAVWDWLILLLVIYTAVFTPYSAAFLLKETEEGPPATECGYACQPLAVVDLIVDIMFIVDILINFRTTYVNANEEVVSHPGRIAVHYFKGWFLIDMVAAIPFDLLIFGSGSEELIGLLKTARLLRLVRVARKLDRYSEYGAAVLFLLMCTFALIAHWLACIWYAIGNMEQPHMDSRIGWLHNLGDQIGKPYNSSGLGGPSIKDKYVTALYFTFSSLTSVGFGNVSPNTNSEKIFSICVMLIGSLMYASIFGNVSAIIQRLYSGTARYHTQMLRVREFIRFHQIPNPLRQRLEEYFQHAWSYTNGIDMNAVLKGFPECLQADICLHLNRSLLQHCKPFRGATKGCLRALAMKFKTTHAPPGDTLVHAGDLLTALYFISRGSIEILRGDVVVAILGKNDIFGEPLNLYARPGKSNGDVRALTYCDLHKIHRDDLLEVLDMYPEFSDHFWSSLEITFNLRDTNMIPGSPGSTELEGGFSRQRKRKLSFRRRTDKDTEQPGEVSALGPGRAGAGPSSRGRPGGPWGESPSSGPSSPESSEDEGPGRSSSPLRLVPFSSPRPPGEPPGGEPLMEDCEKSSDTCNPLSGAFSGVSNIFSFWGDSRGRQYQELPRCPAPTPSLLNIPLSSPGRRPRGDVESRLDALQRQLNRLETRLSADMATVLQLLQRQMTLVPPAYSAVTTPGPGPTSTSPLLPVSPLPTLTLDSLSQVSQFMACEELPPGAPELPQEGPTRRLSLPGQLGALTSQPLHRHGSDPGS

## Cn1c(=O)n(Cc2ccc(C#N)cc2)c2c(N3CCC[C@@H](N)C3)ccnc21
Dipeptidyl peptidase 9
  IC50: > 100 µM
Dipeptidyl peptidase 8
  IC50: > 100 µM

## Cn1c(=O)n(Cc2ccccc2C#N)c2c(N3CCC[C@@H](N)C3)cc(N3CCOCC3)nc21
Dipeptidyl peptidase 9
  IC50: > 100 µM
Dipeptidyl peptidase 8
  IC50: > 100 µM

## COc1cc(N2CCC[C@@H](N)C2)c2c(n1)n(C)c(=O)n2Cc1ccccc1C#N
Dipeptidyl peptidase 9
  IC50: > 100 µM
Dipeptidyl peptidase 8
  IC50: > 100 µM

## CC(=O)N[C@@H]1CCCN(c2ccnc3c2n(Cc2ccccc2C#N)c(=O)n3C)C1
Dipeptidyl peptidase 9
  IC50: > 100 µM
Dipeptidyl peptidase 8
  IC50: > 100 µM

## Cc1cc(N2CCC[C@@H](N)C2)c2c(n1)n(C)c(=O)n2Cc1ccccc1C#N
[1]
  half-life: 2.4 h
[2]
  fraction unbound: 0.26
Mus musculus [3]
  Activity: Non-toxic
[4]
  Cmax: 3030 ng/mL
[5]
  half-life: 1.83 h
Mus musculus [6]
  Activity: 5.7 pM
Mus musculus [7]
  inhibition in vivo at 0.3 mg/kg: 43.8%
[8]
  bioavailability: 89%
[9]
  solubility: 551 mg/mL (≈ 1460 mM)
Cytochrome P450 2D6
  INH: > 30 µM
Mus musculus [10]
  inhibition in vivo at 0.1 mg/kg: 23.8%
[11]
  half-life: 3.68 h
[12]
  solubility: 560 mg/mL (≈ 1490 mM)
Canis familiaris
  Activity: Non-toxic
Cytochrome P450 2C19
  INH: > 30 µM
[13]
  half-life: 1.3 h
[14]
  concentration at 20 min: 10.3 ng/mL
Mus musculus [15]
  inhibition in vivo at 1 mg/kg: 57%
[16]
  fraction unbound: 0.38
[17]
  AUC(0-t): 3980 ng·h/mL
Cytochrome P450 3A4
  INH: > 30 µM
[18]
  Cmax: 1360 ng/mL
[19]
  solubility: 560 mg/mL (≈ 1490 mM)
[20]
  concentration at 20 min: 129 ng/mL
[21]
  clearance: 11.2 mL/min/kg
[22]
  Cmax: 1250 ng/mL
[23]
  INH: > 25 µM
[24]
  AUC(0-t): 3630 ng·h/mL
[25]
  half-life: 1.12 h
[26]
  concentration at 50 min: 36.1 ng/mL
[27]
  AUC(0-t): 12900 ng·h/mL
[28]
  bioavailability: 86%
[29]
  NOAEL at 672 h: 150 mg/kg
Mus musculus [30]
  inhibition in vivo at 0.1 mg/kg: 3%
Mus musculus [31]
  inhibition in vivo at 3 mg/kg: 65%
Mus musculus [32]
  Activity: 12.4 mM
Mus musculus [33]
  Activity: 14.1 mM
Mus musculus [34]
  Activity: 5.7 pM
[35]
  Vd: 2.46 L/kg
[36]
  bioavailability: 97%
Cytochrome P450 2C9
  INH: > 30 µM
Mus musculus [37]
  inhibition in vivo at 1 mg/kg: 71.2%
[38]
  Papp A→B: 9 ×10⁻⁶ cm/s
[39]
  Papp B→A: 28 ×10⁻⁶ cm/s
Mus musculus [40]
  inhibition in vivo at 3 mg/kg: 82.1%
[41]
  concentration at 20 min: 3.9 ng/mL
Mus musculus [42]
  minimal effective dose: 0.3 mg/kg
Mus musculus [43]
  Activity: 6.9 pM
[44]
  half-life: 4.8 h
[45]
  Vd: 2.44 L/kg
[46]
  clearance: 35.3 mL/min/kg
Mus musculus [47]
  Activity: 11.4 mM
Mus musculus [48]
  inhibition in vivo at 0.3 mg/kg: 40%
[49]
  fraction unbound: 0.58
Salmonella typhimurium
  Activity: Non-toxic

## Cn1c(=O)n(Cc2ccccc2C#N)c2c(NC3CCNCC3)ccnc21
Dipeptidyl peptidase 9
  IC50: > 100 µM
Dipeptidyl peptidase 8
  IC50: > 100 µM
